# From ChEMBL document CHEMBL1201862, “PubChem BioAssay data set” (2004)
#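 Briefly, cells in 96-well plates were exposed to five compound concentrations for 48 h, and endpoints were estimated by linear interpolation. GI50 is the concentration that inhibits growth by half.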 Activity calls are given as the source filed them. Cut-off read from the data, not from the text of the source: active = GI50 up to about 1.1 µM and inactive = higher.
# What was measured:
# Assay in all cases: inhibition of tumour cell growth, NCI panel, 48 h
# HT-29 = system: HT-29
# MCF7 = system: MCF7
# U-251 = system: U-251
# Malme-3M = system: Malme-3M
# EKVX = system: EKVX
# COLO 205 = system: COLO 205
# HOP-62 = system: HOP-62
# OVCAR-4 = system: OVCAR-4
# NCI-H460 = system: NCI-H460
# MDA-MB-231 = system: MDA-MB-231
# SF-268 = system: SF-268
# PC-3 = system: PC-3
# HCT-116 = system: HCT-116
# SW-620 = system: SW-620
# UACC-62 = system: UACC-62
# ACHN = system: ACHN
# HL-60 = system: HL-60
# CCRF-CEM = system: CCRF-CEM
# BT-549 = system: BT-549
SMILES,GI50 (HT-29),GI50 (MCF7),GI50 (U-251),GI50 (Malme-3M),GI50 (EKVX),GI50 (COLO 205),GI50 (HOP-62),GI50 (OVCAR-4),GI50 (NCI-H460),GI50 (MDA-MB-231),GI50 (SF-268),GI50 (PC-3),GI50 (HCT-116),GI50 (SW-620),GI50 (UACC-62),GI50 (ACHN),GI50 (HL-60),GI50 (CCRF-CEM),GI50 (BT-549)
C=C1N(C=O)C(C)(C)N(O)C1(C)C,> 100 µM (inactive),> 100 µM (inactive),> 100 µM (inactive),> 100 µM (inactive),> 100 µM (inactive),> 100 µM (inactive),> 100 µM (inactive),> 100 µM (inactive),> 100 µM (inactive),> 100 µM (inactive),> 100 µM (inactive),> 100 µM (inactive),> 100 µM (inactive),> 100 µM (inactive),> 100 µM (inactive),> 100 µM (inactive),,,
CNC(=S)N(C1CCCCC1)C1CCCCC1,41.1 µM (inactive),54.8 µM (inactive),> 100 µM (inactive),47 µM (inactive),34.8 µM (inactive),66.1 µM (inactive),> 100 µM (inactive),90.6 µM (inactive),50.9 µM (inactive),> 100 µM (inactive),> 100 µM (inactive),35.1 µM (inactive),54 µM (inactive),> 100 µM (inactive),> 100 µM (inactive),98.4 µM (inactive),27.4 µM (inactive),33.1 µM (inactive),
COC1C(N(C)C)=C(c2ccccc2)C(=O)N2CCc3ccccc3C12 (centres undefined),> 100 µM (inactive),> 100 µM (inactive),> 100 µM (inactive),> 100 µM (inactive),> 100 µM (inactive),> 100 µM (inactive),> 100 µM (inactive),> 100 µM (inactive),,> 100 µM (inactive),> 100 µM (inactive),> 100 µM (inactive),> 100 µM (inactive),> 100 µM (inactive),> 100 µM (inactive),> 100 µM (inactive),> 100 µM (inactive),> 100 µM (inactive),
COc1cccc2c1C(=O)c1c(O)c3c(c(O)c1C2=O)CC(O)(C(C)=O)CC3OC1OC(COC(C)=O)C(OC(C)=O)C(OC(C)=O)C1OC(C)=O (centres undefined),25.7 µM (inactive),65.2 µM (inactive),12.9 µM (inactive),35.6 µM (inactive),0.116 µM (active),79.4 µM (inactive),10.2 µM (inactive),18 µM (inactive),> 100 µM (inactive),17.7 µM (inactive),11.4 µM (inactive),> 100 µM (inactive),55.8 µM (inactive),> 100 µM (inactive),33.2 µM (inactive),17.4 µM (inactive),53.8 µM (inactive),0.0276 µM (active),
c1cc2nnc1SCCSCCCSCCS2,> 100 µM (inactive),> 100 µM (inactive),> 100 µM (inactive),> 100 µM (inactive),> 100 µM (inactive),> 100 µM (inactive),35.2 µM (inactive),34.6 µM (inactive),> 100 µM (inactive),29.6 µM (inactive),2.88 µM (inactive),> 100 µM (inactive),> 100 µM (inactive),> 100 µM (inactive),> 100 µM (inactive),> 100 µM (inactive),> 100 µM (inactive),> 100 µM (inactive),
O=c1[nH]c2nccn2c2c1SCCN2,> 100 µM (inactive),> 100 µM (inactive),> 100 µM (inactive),> 100 µM (inactive),> 100 µM (inactive),> 100 µM (inactive),> 100 µM (inactive),> 100 µM (inactive),> 100 µM (inactive),,> 100 µM (inactive),> 100 µM (inactive),> 100 µM (inactive),> 100 µM (inactive),> 100 µM (inactive),> 100 µM (inactive),> 100 µM (inactive),> 100 µM (inactive),> 100 µM (inactive)
Clc1ccc(-c2nnc(C34CC5CC(CC(C5)C3)C4)o2)cc1,> 100 µM (inactive),,> 100 µM (inactive),> 100 µM (inactive),> 100 µM (inactive),> 100 µM (inactive),> 100 µM (inactive),> 100 µM (inactive),> 100 µM (inactive),> 100 µM (inactive),> 100 µM (inactive),> 100 µM (inactive),> 100 µM (inactive),> 100 µM (inactive),> 100 µM (inactive),> 100 µM (inactive),> 100 µM (inactive),> 100 µM (inactive),
O=C(O)c1ccccc1/C=C1\Cc2ccccc2C1=O,38.2 µM (inactive),> 100 µM (inactive),> 100 µM (inactive),> 100 µM (inactive),> 100 µM (inactive),48.4 µM (inactive),> 100 µM (inactive),> 100 µM (inactive),> 100 µM (inactive),,> 100 µM (inactive),> 100 µM (inactive),> 100 µM (inactive),> 100 µM (inactive),> 100 µM (inactive),> 100 µM (inactive),> 100 µM (inactive),> 100 µM (inactive),19.3 µM (inactive)
CC(=O)NC1C(=O)CC(c2ccccc2)N(C)C1c1ccccc1 (centres undefined),78 µM (inactive),,> 100 µM (inactive),> 100 µM (inactive),> 100 µM (inactive),> 100 µM (inactive),> 100 µM (inactive),> 100 µM (inactive),> 100 µM (inactive),,> 100 µM (inactive),,> 100 µM (inactive),> 100 µM (inactive),> 100 µM (inactive),> 100 µM (inactive),> 100 µM (inactive),> 100 µM (inactive),
O=C(O)c1ccccc1NC(=O)C1CCCCC1,> 100 µM (inactive),,> 100 µM (inactive),> 100 µM (inactive),> 100 µM (inactive),> 100 µM (inactive),> 100 µM (inactive),> 100 µM (inactive),66.1 µM (inactive),,> 100 µM (inactive),,> 100 µM (inactive),> 100 µM (inactive),> 100 µM (inactive),> 100 µM (inactive),> 100 µM (inactive),> 100 µM (inactive),
COC1(OC)N=C(N)C2(C#N)/C(=N/N(C)C)CC(C)C12C#N (centres undefined),> 100 µM (inactive),> 100 µM (inactive),> 100 µM (inactive),> 100 µM (inactive),> 100 µM (inactive),> 100 µM (inactive),> 100 µM (inactive),,,> 100 µM (inactive),> 100 µM (inactive),> 100 µM (inactive),> 100 µM (inactive),> 100 µM (inactive),> 100 µM (inactive),> 100 µM (inactive),> 100 µM (inactive),> 100 µM (inactive),
C[C@@H](c1ccccc1)C(CC#N)[C@H]1CCC[C@]1(O)C#Cc1ccc2c(c1)OCO2 (some centres undefined),15.2 µM (inactive),18.4 µM (inactive),16.9 µM (inactive),15.8 µM (inactive),19.5 µM (inactive),18.2 µM (inactive),16.8 µM (inactive),15.8 µM (inactive),16.1 µM (inactive),17.5 µM (inactive),19.6 µM (inactive),15.9 µM (inactive),,17.9 µM (inactive),16.6 µM (inactive),16.6 µM (inactive),18.3 µM (inactive),14.8 µM (inactive),
Cc1nn2c(C(=O)N/N=C/c3ccc([N+](=O)[O-])cc3)c(C)nc2s1,> 100 µM (inactive),90.4 µM (inactive),23.6 µM (inactive),> 100 µM (inactive),> 100 µM (inactive),> 100 µM (inactive),46.5 µM (inactive),> 100 µM (inactive),> 100 µM (inactive),24.1 µM (inactive),> 100 µM (inactive),,> 100 µM (inactive),> 100 µM (inactive),> 100 µM (inactive),50 µM (inactive),> 100 µM (inactive),> 100 µM (inactive),> 100 µM (inactive)
CON(C)C(=O)C(C)NC(=O)OC(C)(C)C (centres undefined),> 100 µM (inactive),> 100 µM (inactive),> 100 µM (inactive),> 100 µM (inactive),> 100 µM (inactive),> 100 µM (inactive),> 100 µM (inactive),,> 100 µM (inactive),,> 100 µM (inactive),> 100 µM (inactive),> 100 µM (inactive),> 100 µM (inactive),> 100 µM (inactive),> 100 µM (inactive),> 100 µM (inactive),> 100 µM (inactive),> 100 µM (inactive)
COC(=O)c1c2c(cc3c1CC1(Cc4cc5c(c(C=O)c4C1)CCCC5)C3)CCCC2 (centres undefined),51.3 µM (inactive),27 µM (inactive),43.8 µM (inactive),> 100 µM (inactive),52.4 µM (inactive),20.7 µM (inactive),31.8 µM (inactive),34.1 µM (inactive),,32.7 µM (inactive),,40.5 µM (inactive),23.3 µM (inactive),,23.5 µM (inactive),23.9 µM (inactive),30 µM (inactive),,
CCCC[C@@H](C)/C=C1\CN2CCC[C@H]2[C@@](C)(O)[C@@H]1O,43.2 µM (inactive),80.2 µM (inactive),66.2 µM (inactive),> 100 µM (inactive),> 100 µM (inactive),> 100 µM (inactive),52.1 µM (inactive),21.9 µM (inactive),16.7 µM (inactive),> 100 µM (inactive),44.7 µM (inactive),> 100 µM (inactive),,> 100 µM (inactive),38.7 µM (inactive),42 µM (inactive),1.92 µM (inactive),12.3 µM (inactive),
